# Experimental data from patent US20150175655A1 (priority 2012, published 2015).
# Molecular target: T1, NS3 genotype 1b protease (Hepatitis C virus genotype 1b, UniProt Q9WMX2, E1202G)
# T1 construct: Purified NS3 protease domain (amino acids 1-181) of the genotype 1b and 3a virus were generated as above; K3 hexahistidine tag (N); rTEV protease cleavage site (N); made in house; host or cells: E. coli BL21AI, pET28 vector p28-N6H-Tev-NS3(181)1b
# Test: Ki determination, NS3 protease genotype 1b (fluorogenic depsipeptide substrate)
# Assay type: biochemical
# Summary of the method: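 The His-tagged HCV NS3 protease domain (residues 1-181, genotype 1b con-1) was expressed in E. coli, and 50 pM enzyme with 20 μM NS4A peptide was used. Inhibitor (100 nM to 5 pM, 3-fold steps) was pre-incubated 1 h at room temperature in 50 mM HEPES, 40% glycerol, 0.05% Triton X-100, 10 mM DTT, 10% DMSO. The reaction was started with 4 μM fluorogenic substrate, and fluorescence (ex 340/em 490 nm) was read every 30 s between 90 and 120 min. Ki^app came from fitting rates with the Morrison equation.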
smiles,measurement,value
"COc1ccc2nc3c(nc2c1)O[C@H]1CN(C(=O)[C@H](C(C)(C)C)NC(=O)O[C@@H]2C[C@H]2CCCCC3F)[C@H](C(=O)N[C@]2(C(=O)NS(=O)(=O)C3(C)CC3)C[C@H]2C(F)F)[C@@H]1C (stereo partly drawn) [Example 47, (1aR,5S,8S,9S,10R,22aR)-5-tert-butyl-N-[(1R,2R)-2-(difluoromethyl)-1-{[(1-methylcyclopropyl)sulfonyl]carbamoyl}cyclopropyl]-18-fluoro-14-methoxy-9-methyl-3,6-dioxo-1,1a,3,4,5,6,9,10,18,19,20,21,22,22a-tetradecahydro-8H-7,10-methanocyclopropa[18,19][1,10,3,6]dioxadiazacyclononadecino[11,12-b]quinoxaline-8-carboxamide]",Ki,0.07 nM
